From patent US20240317731A1, “AMINOTHIAZOLE COMPOUNDS AS C-KIT INHIBITORS” (Theseus Pharmaceuticals, Inc., priority 2021, published 2024)

Assays:
BAF3 KIT EX11 DEL = BAF3 KIT EX11 DEL (Homo sapiens, UniProt P10721, cells depend on it, form not given); assay: Ba/F3 KIT mutant viability assay (Cell Titer-Glo), EX11 DEL; type: cell-based; details: 72 hours
Method: (§1) KIT cDNAs were synthesized by GenScript and cloned into the pLVX-IRES-Puro vector (Clontech). Viral particles were produced by transfecting pLVX-IRES-puro vectors containing KIT mutant genes into HEK293 cells (Invitrogen) using the Trans-Lentiviral ORF Packaging Kit (Thermo Scientific). 48 hours post-transfection, virus-containing supernatants were harvested and incubated for another 48-72 hours with parental Ba/F3 cells (DSMZ) in the presence of 10 ng/ml IL-3 (R&D Systems). Transduced Ba/F3 cells were then selected by IL-3 withdrawal and puromycin (0.5-1 μg/mL, Invitrogen).
(§2) Cell lines (e.g., EX11DEL, EX11KEL/D816H, EX11DEL/T670I, and EX11DEL/V654A) were plated into 384 well plates using RPMI 1640 supplemented with 10% FBS at densities that produced linear growth and incubated at 37° C. in 5%(v/v) CO2. Cells were treated with eight concentrations of compound over a 4-fold dilution (10 uM to 0.61 nM) and viability was assessed using Cell Titer-Glo assay (Promega) after 72 hours. Data were plotted as percent viability relative to vehicle-treated cells. Dose-responses curves were generated and used to calculate IC50 values.

BAF3 KIT EX11 DEL/T670I = BAF3 KIT EX11 DEL/T670I (Homo sapiens, UniProt P10721, T670I, cells depend on it, form not given); assay: Ba/F3 KIT mutant viability assay (Cell Titer-Glo), EX11 DEL/T670I; type: cell-based; details: 72 hours
Method: as §1, §2

[1] = In vivo pharmacokinetic studies in rats; details: rat
From the text: For example, the pharmacokinetics of Compound (1a) has been studied. […] After repeat dosing for 10 days, increased AUC (area under the curve) were obtained with Compound (1a) at either dose (see FIG. 1).

BAF3 KIT EX11 DEL/D816H = BAF3 KIT EX11 DEL/D816H (Homo sapiens, UniProt P10721, D816H, cells depend on it, form not given); assay: Ba/F3 KIT mutant viability assay (Cell Titer-Glo), EX11 DEL/D816H; type: cell-based; details: 72 hours
Method: as §1, §2

[2] = In vivo pharmacokinetic studies in non-human primates (monkeys); parameters: species or system monkey; details: male and female monkeys, oral
Method: Pharmacokinetic studies of Compound (1a) in non-human primates were also undertaken in male (FIG. 2A) and female (FIG. 2B) monkeys at two different doses (2 mg/kg and 4 mg/kg) via oral administration.

BAF3 KIT EX11 DEL/V654A = BAF3 KIT EX11 DEL/V654A (Homo sapiens, UniProt P10721, V654A, cells depend on it, form not given); assay: Ba/F3 KIT mutant viability assay (Cell Titer-Glo), EX11 DEL/V654A; type: cell-based; details: 72 hours
Method: as §1, §2

BAF3 KIT EX11 DEL/D816H, sequence (P10721 with tags, fused parts or gaps DEL557-558/D816H, form open): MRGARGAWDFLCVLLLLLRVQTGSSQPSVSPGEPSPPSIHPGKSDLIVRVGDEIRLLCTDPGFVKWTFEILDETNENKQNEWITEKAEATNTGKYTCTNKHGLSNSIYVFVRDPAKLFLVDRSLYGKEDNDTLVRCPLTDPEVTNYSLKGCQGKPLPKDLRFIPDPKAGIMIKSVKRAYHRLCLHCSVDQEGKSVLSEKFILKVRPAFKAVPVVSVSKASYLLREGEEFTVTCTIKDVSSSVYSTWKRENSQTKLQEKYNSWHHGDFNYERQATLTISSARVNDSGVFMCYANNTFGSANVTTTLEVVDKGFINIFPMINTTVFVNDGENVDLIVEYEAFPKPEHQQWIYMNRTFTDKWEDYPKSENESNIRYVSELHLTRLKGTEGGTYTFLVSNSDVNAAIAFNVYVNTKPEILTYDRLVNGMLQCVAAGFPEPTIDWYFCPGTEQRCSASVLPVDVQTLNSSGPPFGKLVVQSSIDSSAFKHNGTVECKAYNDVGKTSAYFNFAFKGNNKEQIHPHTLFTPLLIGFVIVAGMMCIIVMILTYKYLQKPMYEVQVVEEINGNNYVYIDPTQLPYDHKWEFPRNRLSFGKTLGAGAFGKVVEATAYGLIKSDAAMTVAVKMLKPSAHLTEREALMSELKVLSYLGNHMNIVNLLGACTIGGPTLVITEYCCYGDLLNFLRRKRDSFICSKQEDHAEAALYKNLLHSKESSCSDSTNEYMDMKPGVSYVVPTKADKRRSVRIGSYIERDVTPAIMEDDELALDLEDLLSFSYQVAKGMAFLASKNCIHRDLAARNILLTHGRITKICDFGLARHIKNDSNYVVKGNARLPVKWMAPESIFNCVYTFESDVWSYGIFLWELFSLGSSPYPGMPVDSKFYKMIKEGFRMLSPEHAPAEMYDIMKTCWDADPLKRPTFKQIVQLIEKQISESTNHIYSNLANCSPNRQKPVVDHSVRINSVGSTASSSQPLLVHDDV
BAF3 KIT EX11 DEL, sequence (P10721 with tags, fused parts or gaps DEL557-558): as the sequence (P10721 with tags, fused parts or gaps DEL557-558/D816H, form open) above, with H814D counted along it
BAF3 KIT EX11 DEL/V654A, sequence (P10721 with tags, fused parts or gaps DEL557-558/V654A, form open): as the sequence (P10721 with tags, fused parts or gaps DEL557-558/D816H, form open) above, with V652A, H814D counted along it
BAF3 KIT EX11 DEL/T670I, sequence (P10721 with tags, fused parts or gaps DEL557-558/T670I, form open): as the sequence (P10721 with tags, fused parts or gaps DEL557-558/D816H, form open) above, with T668I, H814D counted along it

Compound	GI50 (BAF3 KIT EX11 DEL) [nM]	GI50 (BAF3 KIT EX11 DEL/T670I) [nM]	AUC (area under the curve) after repeat dosing ([1]; oral, 10 mg/kg and 30 mg/kg (either dose), repeat dosing for 10 days, FIG. 1)	average observed plasma concentration (Cav) versus target exposure ([1]; oral, 30 mg/kg (the latter dose))	clearance (Cl) ([1]; single dose)	volume of distribution (Vd) ([1]; single dose)	GI50 (BAF3 KIT EX11 DEL/D816H) [nM]	curve shapes and AUC, Day 1 versus Day 10 ([2]; 2 mg/kg and 4 mg/kg (either dose), FIG. 2A/2B)	exposure after repeat dosing ([2]; 2 mg/kg and 4 mg/kg, Day 10 versus Day 1)	GI50 (BAF3 KIT EX11 DEL/V654A) [nM]
Cc1ccc(NC(=O)c2cc(C(F)(F)F)ccn2)cc1C#Cc1cnc(NC(=O)N2CC[C@H](N(C)C)C2)s1 [Compound 1a, N-[3-[2-[2-[[(3S)-3-(dimethylamino)pyrrolidine-1-carbonyl]amino]thiazol-5-yl]ethynyl]-4-methyl-phenyl]-4-(trifluoromethyl)pyridine-2-carboxamide]	< 10	10 to 50	increased	exceeded target exposure required for achieving desired antitumor efficacy	high	high	10 to 50	similar	no significant loss of exposure	10 to 50
Cc1ccc(NC(=O)c2cc(C(F)(F)F)ccn2)cc1C#Cc1cnc(NC(=O)N2CC[C@@H](N(C)C)C2)s1 [Compound 1b]	< 10	10 to 50					10 to 50			10 to 50
Cc1ccc(NC(=O)c2cc(C(F)(F)F)ccn2)cc1C#Cc1cnc(NC(=O)N2CC[C@@H](O)C2)s1 [Compound 2a]	< 10	< 10					< 10			< 10
Cc1ccc(NC(=O)c2cc(C(F)(F)F)ccn2)cc1C#Cc1cnc(NC(=O)N2CC[C@H](O)C2)s1 [Compound 2b]	< 10	< 10					< 10			< 10
Cc1ccc(NC(=O)c2cc(C(F)(F)F)ccn2)cc1C#Cc1cnc(NC(=O)N2CC(O)C2)s1 [Compound 3]	< 10	10 to 50					10 to 50			10 to 50
Cc1ccc(NC(=O)c2cc(C(F)(F)F)ccn2)cc1C#Cc1cnc(NC(=O)N2CC(C)(O)C2)s1 [Compound 4]	< 10	10 to 50					10 to 50			10 to 50
CN[C@H]1CCN(C(=O)Nc2ncc(C#Cc3cc(NC(=O)c4cc(C(F)(F)F)ccn4)ccc3C)s2)C1 [Compound 5a]	< 10	50 to 100					10 to 50			10 to 50
